From patent US11352350B2, “IRAK degraders and uses thereof” (Kymera Therapeutics, Inc., priority 2018, dated 2022)
Where two headings read alike, the source gives them in different places.

Key:
BALB/c mice = assay: MSU crystal-induced inflammatory cell infiltration into six-day air pouch (gout model); assay type: in vivo, mouse; details: orally dosed; FIG. 15
Experimental: Animals: BALB/c mice, male, 5-6 weeks, weighing approximately 19-23 g were used. Animals were housed and maintained according to IACUC protocols.
Air Pouch: Each mouse was anesthetized and injected with 6 mL of sterile air subcutaneously (SC) at the nape of the neck and the injection site was sealed with flexible colloidon to create an air pouch. Three days later, the mice were injected with 3 mL of sterile air SC at the same site and the injection site was sealed with flexible colloidon.
Preparation of MSU Crystals: 10 g uric acid (Sigma, Cat. U2625, lot BCBM5312V) was heated to 60° C. in 2 L purified water, containing 5.8 mL 10 N NaOH. The pH of the heated mixture was adjusted to 8.9, yielding a clear solution which was stored overnight at 4-8° C. to allow MSU crystals to form and precipitate. The MSU crystals were washed three times with 1 L purified water and stored at 37° C. to dry.
Formulation of Degrader: 0.5% CMC/0.25% Tween-80 was prepared by dissolving 0.5 g carboxymethylcellulose (Sigma, Cat. C4888, lot 101K0185) in 100 mL de-ionized water followed by the addition of 0.25 mL Tween-80 (Sigma, Cat. P1754, lot 073K0064). […]
Termination, Cell Collection and Data: Four hours after MSU/saline injection, the mice were anesthetized and humanely exsanguinated. […] The air pouch was gently massaged, the contents immediately removed, and the exudate volume recorded. […]

IRAK4 [1] = target: T1, IRAK4 (Homo sapiens (Human), UniProt Q9NWZ3); assay: IRAK4 WB degradation (DC50); assay type: cell-based
T1 sequence (Q9NWZ3 whole entry): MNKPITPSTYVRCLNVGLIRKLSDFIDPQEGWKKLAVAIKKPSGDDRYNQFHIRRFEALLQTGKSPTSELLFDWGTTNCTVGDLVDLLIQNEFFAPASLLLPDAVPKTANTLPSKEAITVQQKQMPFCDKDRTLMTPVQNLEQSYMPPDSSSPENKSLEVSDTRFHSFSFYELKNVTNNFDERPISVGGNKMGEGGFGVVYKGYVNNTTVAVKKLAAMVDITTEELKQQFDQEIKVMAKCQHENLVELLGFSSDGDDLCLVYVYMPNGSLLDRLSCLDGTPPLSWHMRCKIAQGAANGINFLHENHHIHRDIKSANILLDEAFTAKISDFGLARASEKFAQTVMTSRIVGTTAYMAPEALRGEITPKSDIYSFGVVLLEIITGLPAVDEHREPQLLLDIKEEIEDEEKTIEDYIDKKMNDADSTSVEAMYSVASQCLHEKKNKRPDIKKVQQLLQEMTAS

AIOLOS = AIOLOS (Homo sapiens (Human), UniProt Q96SW2+Q9UKT9); assay: AIOLOS degradation in OCI-LY10 (DC50); assay type: cell-based
Chain of AIOLOS (Q9UKT9 whole entry): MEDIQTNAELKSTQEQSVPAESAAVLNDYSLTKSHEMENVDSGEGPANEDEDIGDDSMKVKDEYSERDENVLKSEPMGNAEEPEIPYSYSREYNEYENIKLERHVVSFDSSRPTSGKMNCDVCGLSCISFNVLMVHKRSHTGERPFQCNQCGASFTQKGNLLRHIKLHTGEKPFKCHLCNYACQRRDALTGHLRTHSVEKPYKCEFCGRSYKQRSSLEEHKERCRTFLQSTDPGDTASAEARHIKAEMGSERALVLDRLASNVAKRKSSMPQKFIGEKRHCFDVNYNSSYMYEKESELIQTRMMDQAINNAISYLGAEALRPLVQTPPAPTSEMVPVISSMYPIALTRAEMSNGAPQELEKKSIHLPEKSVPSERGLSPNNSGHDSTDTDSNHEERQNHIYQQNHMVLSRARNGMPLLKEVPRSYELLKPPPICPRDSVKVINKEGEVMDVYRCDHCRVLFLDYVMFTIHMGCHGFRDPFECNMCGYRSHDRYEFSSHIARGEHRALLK
Chain of AIOLOS (Q96SW2 whole entry): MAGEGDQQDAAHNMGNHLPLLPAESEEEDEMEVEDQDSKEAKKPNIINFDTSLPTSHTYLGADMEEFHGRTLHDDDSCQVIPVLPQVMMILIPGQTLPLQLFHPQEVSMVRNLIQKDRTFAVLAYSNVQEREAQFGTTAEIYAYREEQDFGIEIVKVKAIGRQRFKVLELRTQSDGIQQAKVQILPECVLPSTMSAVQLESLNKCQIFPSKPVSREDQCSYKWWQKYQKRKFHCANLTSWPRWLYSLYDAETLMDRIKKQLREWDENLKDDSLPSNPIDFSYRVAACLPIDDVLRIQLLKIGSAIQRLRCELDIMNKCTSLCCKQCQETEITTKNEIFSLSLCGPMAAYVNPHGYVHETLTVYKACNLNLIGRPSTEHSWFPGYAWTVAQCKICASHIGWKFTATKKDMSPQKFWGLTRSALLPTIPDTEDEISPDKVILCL
Chain of AIOLOS (Q16531 whole entry partner): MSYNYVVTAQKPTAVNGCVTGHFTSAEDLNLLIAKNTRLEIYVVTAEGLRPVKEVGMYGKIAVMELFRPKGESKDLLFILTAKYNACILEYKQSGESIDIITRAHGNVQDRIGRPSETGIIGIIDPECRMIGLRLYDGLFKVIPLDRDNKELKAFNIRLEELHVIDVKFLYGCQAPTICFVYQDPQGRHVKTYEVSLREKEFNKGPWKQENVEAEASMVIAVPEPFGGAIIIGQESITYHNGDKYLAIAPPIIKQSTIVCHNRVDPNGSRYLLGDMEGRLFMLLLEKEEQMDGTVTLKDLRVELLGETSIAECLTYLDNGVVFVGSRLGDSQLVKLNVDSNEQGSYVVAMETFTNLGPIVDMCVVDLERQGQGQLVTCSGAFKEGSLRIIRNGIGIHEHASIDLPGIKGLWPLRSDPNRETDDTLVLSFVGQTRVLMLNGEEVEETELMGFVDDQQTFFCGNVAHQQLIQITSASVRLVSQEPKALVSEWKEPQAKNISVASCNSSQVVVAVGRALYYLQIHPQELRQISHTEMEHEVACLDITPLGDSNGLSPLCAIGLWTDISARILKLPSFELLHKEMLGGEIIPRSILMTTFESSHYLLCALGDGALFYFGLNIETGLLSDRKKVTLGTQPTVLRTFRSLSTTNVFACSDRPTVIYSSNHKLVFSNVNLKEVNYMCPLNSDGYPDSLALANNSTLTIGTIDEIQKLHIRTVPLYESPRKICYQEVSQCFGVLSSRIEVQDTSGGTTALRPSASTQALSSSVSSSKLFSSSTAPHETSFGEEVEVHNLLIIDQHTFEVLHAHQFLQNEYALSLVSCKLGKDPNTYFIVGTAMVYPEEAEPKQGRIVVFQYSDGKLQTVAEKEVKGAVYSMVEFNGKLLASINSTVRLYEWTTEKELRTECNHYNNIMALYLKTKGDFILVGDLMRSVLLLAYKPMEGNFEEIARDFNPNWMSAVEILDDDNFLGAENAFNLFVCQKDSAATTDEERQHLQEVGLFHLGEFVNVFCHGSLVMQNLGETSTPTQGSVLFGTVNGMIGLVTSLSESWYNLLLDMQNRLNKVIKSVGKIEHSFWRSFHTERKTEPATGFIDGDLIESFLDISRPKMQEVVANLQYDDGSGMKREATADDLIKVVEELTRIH

SU-DHL6 = SU-DHL6 viability, CTG; assay type: cell-based; details: Homo sapiens, SU-DHL-6
[2] = Oral exposure / bioavailability of I-75; assay type: in vivo, rat, dog, and monkey; details: FIG. 11
IRAK4 [3] = target: T1, IRAK4; assay: IRAK4 quantification in xenograft tumors by UPLC-MS/MS (tumor PD); assay type: in vivo, mouse; details: OCI-LY10 xenograft-bearing mice, oral dosing; FIG. 14
Experimental: At termination: At pre-determined time points based on study design, animals were humanely sacrificed by CO2. Blood was obtained by cardiac puncture for isolation of plasma, any residual tumor was removed and divided in 2 portions, 1 (minimal) for terminal compound exposure and 1 to determine IRAK4 and actin. Compound was determined in tumor and plasma using LC/MS with calibrated standards.
Interleukin-1 receptor-associated kinase 4 (IRAK4) was quantified in human OCI-LY10 and TMD8 xenograft tumors, together with mouse splenocytes and peripheral blood mononuclear cells (PBMCs), by ultra-performance liquid chromatography-tandem mass spectrometry (UPLC-MS/MS). The concentrations of IRAK4 were normalized by the concentrations of actin in the respective samples. […]
Signature peptide concentrations were quantitated using a sensitive and specific targeted LC-MS/MS method. […]
Signature peptide levels (LAVAIK, […]) were quantified by UPLC-MS/MS. […] A SCIEX TripleTOF 6600 LC-MS/MS system was used for the detection and quantitation of analytes. The intensities of the analytes and ISs were determined by integration of extracted ion peak areas using Analyst and MultiQuant 3.0 software. […] Measured peptide levels were corrected for sample work up and converted to actual protein concentrations in ng/mg total protein of cell lysate. […]

| Structure (SMILES) | IL-1β in plasma (BALB/c mice) | DC50 (IRAK4 [1]) | DC50 (AIOLOS) | IC50 (SU-DHL6; MYD88 WT Lines, read-out: SU-DHL6 Viability, CTG IC50) | IC50 (SU-DHL6; MYD88 WT, read-out: SU-DHL6 CTG IC50) | oral bioavailability ([2]; rat, dog, and monkey) | oral exposure in plasma ([2]; up to 300 mg/kg) | degradation of IRAK4 correlating with tumor regression (IRAK4 [3]) |
| --- | --- | --- | --- | --- | --- | --- | --- | --- |
| CN(CCCOCCCc1cccc2c1n(C)c(=O)n2C1CCC(=O)NC1=O)C[C@H]1CC[C@H](n2cc(NC(=O)c3coc(-c4ccnc(NCC5CC5)c4)n3)c(C(F)F)n2)CC1 (mixture of isomers) [I-30, 2-[2-(Cyclopropylmethylamino)-4-pyridyl]-N-[3-(difluoromethyl)-1-[4-[[3-[3-[1-(2,6-dioxo-3-piperidyl)-3-methyl-2-oxo-benzimidazol-4-yl]propoxy]propyl-methyl-amino]methyl]cyclohexyl]pyrazol-4-yl] oxazole-4-carboxamide] | dose-dependent decrease in IL-1β | – | – | – | – | – | – | – |
| CN(C[C@H]1CC[C@H](n2cc(NC(=O)c3coc(-c4ccnc(NCC5CC5)c4)n3)c(C(F)F)n2)CC1)C1CCN(Cc2cccc3c2n(C)c(=O)n3C2CCC(=O)NC2=O)CC1 (some centres unmarked) [I-75, 2-(2-((cyclopropylmethyl)amino)pyridin-4-yl)-N-(3-(difluoromethyl)-1-((1r,4r)-4-(((1-((1-(2,6-dioxopiperidin-3-yl)-3-methyl-2-oxo-2,3-dihydro-1H-benzo[d]imidazol-4-yl)methyl)piperidin-4-yl)(methyl)amino)methyl)cyclohexyl)-1H-pyrazol-4-yl)oxazole-4-carboxamide] | – | 23 nM | > 100 nM | 1600 nM | 1600 nM | oral bioavailable | dose proportional oral exposure in plasma | > 75% |
